From PubChem BioAssay (NCI)
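The compound was tested at five concentrations on cells cultured in 96-well plates, with a 48-hour exposure period. TGI is the concentration that stops growth completely.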

Legend:
Assay in all cases: NCI tumour cell line growth inhibition, 48 h
HOP-18 NSCLC = tested on: HOP-18 NSCLC
CCRF-CEM leukemia = tested on: CCRF-CEM leukemia
ACHN renal = tested on: ACHN renal
HCT-116 colon = tested on: HCT-116 colon
OVCAR-8 ovarian = tested on: OVCAR-8 ovarian
M19-MEL melanoma = tested on: M19-MEL melanoma
SNB-19 CNS = tested on: SNB-19 CNS
SNB-78 CNS = tested on: SNB-78 CNS
MOLT-4 leukemia = tested on: MOLT-4 leukemia
LXFL 529 NSCLC = tested on: LXFL 529 NSCLC

Row | Compound | TGI (HOP-18 NSCLC) | TGI (CCRF-CEM leukemia) | TGI (ACHN renal) | TGI (HCT-116 colon) | TGI (OVCAR-8 ovarian) | TGI (M19-MEL melanoma) | TGI (SNB-19 CNS) | TGI (SNB-78 CNS) | TGI (MOLT-4 leukemia) | TGI (LXFL 529 NSCLC)
1 | CC(=O)CC(N)=O | > 100 µM | > 100 µM | > 100 µM | > 100 µM | > 100 µM | > 100 µM | > 100 µM | > 100 µM | > 100 µM | > 100 µM
2 | CCOC(=O)/C(=C\c1ccc(N(CCC#N)CCC#N)cc1)NC(=O)c1cc([N+](=O)[O-])ccc1Cl | > 100 µM | > 100 µM | > 100 µM | > 100 µM | > 100 µM | > 100 µM | > 100 µM | > 100 µM | > 100 µM | > 100 µM
3 | O=C1C=CC(=O)C12CCc1ccccc12 | 97.4 µM | > 95.2 µM | > 100 µM | > 100 µM | > 100 µM | > 100 µM | > 100 µM | > 100 µM | > 100 µM | > 100 µM
4 | CN1CC(=O)N(C)c2ncn(Cc3ccccc3)c2C1=O | > 100 µM | > 100 µM | > 100 µM |  | > 100 µM | > 100 µM | > 100 µM | > 100 µM | > 100 µM | > 100 µM
5 | COc1cc(OC)c(SSCCCCS(=O)O)c(OC)c1 | 45.8 µM | 42.9 µM | 31.8 µM | 29.9 µM | 34.1 µM | 22.9 µM | 34.1 µM | 29.4 µM | 26.8 µM | 25.2 µM
6 | C[C@]12CCC(=O)C(O)=C1CC[C@@H]1C2CC[C@]2(C)NC(=O)CCC12 (stereo partly drawn) | > 100 µM | > 100 µM | > 100 µM | > 100 µM | > 100 µM | > 100 µM | > 100 µM | > 100 µM | > 100 µM | > 100 µM
7 | CCOC(=O)Cc1ccc2c(c1O)C(=O)c1c(ccc(CC(=O)OCC)c1O)C2=O | > 100 µM | > 100 µM | > 100 µM | > 100 µM | > 100 µM | > 100 µM | > 100 µM | > 100 µM | > 100 µM | > 100 µM
8 | CCOC(=O)NC1C2CC(=O)OC(O2)C1OC(C)=O (stereo not drawn) | > 100 µM | > 100 µM | > 100 µM | > 100 µM | > 100 µM | > 100 µM | > 100 µM | > 100 µM | > 100 µM | > 100 µM
9 | COc1ccccc1C(O)(c1ccccc1)C(O)(c1ccccc1)c1ccccc1OC (stereo not drawn) | > 100 µM | > 100 µM | > 100 µM | > 100 µM | > 100 µM | > 100 µM | > 100 µM | > 100 µM | > 100 µM | > 100 µM
10 | CCN(CC)CCCNC(=O)C1COc2cc(-c3cc(=O)c4ccccc4o3)ccc2O1 (stereo not drawn) | > 100 µM | > 100 µM | > 100 µM | > 100 µM | > 100 µM | 76.4 µM | > 100 µM | > 100 µM | > 100 µM | > 100 µM
11 | CC1=C[C@]2(O)C(=O)[C@H](C)C[C@H]3[C@@H](CC[C@@](C)(O)/C=C\2C1=O)C3(C)C | 98.9 µM | > 100 µM | 54.6 µM | 30.9 µM | 46.9 µM | 33.4 µM | > 100 µM | 82.5 µM | > 62 µM | 37.9 µM
12 | CCOc1ccc(N=Cc2ccc3cc(C)ccc3n2)cc1 | > 100 µM | 60.6 µM | > 100 µM |  | > 100 µM | > 100 µM | > 100 µM | > 100 µM | 76.7 µM | > 100 µM
